For series [1] the following is noted: Table 13 Comparative Studies; cited from earlier work.
Series [2] concerns L1, p16, IFN-I and SASP gene expression. Kind of series: RT-qPCR of L1, p16, IFN-I and SASP genes in mouse tissues after drug in drinking water. The series is classed as in vivo. The note with it: for IFNA Individual Foldchanges / IL6 Individual Foldchanges / IRF7 Individual Foldchanges / L1 Individual Foldchanges / MMP3 Individual Foldchanges / OAS1 Individual Foldchanges / PAI Individual Foldchanges / p16 Individual Foldchanges: one animal per line, listed as 3TC; for IFNA Age-group Foldchanges / IL6 Age-group Foldchanges / IRF7 Age-group Foldchanges / L1 Age-group Foldchanges / MMP3 Age-group Foldchanges / OAS1 Age-group Foldchanges / PAI Age-group Foldchanges / p16 Age-group Foldchanges: relative to 05 mo-WT. For orientation: Real-time PCR tracks product formation cycle by cycle.
Protocol: C57BL/6J mice of both sexes were obtained from the NIA Aged Rodent Colonies^61 at 5 and 18 months of age. The 5-month old animals were sacrificed after a short (1 week) acclimatization period, a variety of tissues were harvested, snap frozen in LN2 and stored at −80° C. The 18-month old animals were housed until they reached a desired age. Mice were housed in a specific pathogen-free AAALAC-certified barrier facility. Cages, bedding (Sani-chip hardwood bedding) and food (Purina Lab Chow 5010) were sterilized by autoclaving. Food and water (also sterilized) were provided ad libitum. A light-dark cycle of 12 hours was used (7 AM On, 7 PM Off). Temperature was maintained at 70° F., and humidity at 50%. All animals were observed daily and weighed once per week. In a pilot experiment, three cohorts of 10 animals each were treated with 3TC dissolved in drinking water (1.5 mg/ml, 2.0 mg/ml, 2.5 mg/ml) continuously from 18 months until sacrifice at 24 months. The fourth (control) cohort was provided with the same water without drug. […] Once during the experiment (at 20 months of age) the animals were subjected to a single tail bleed of approximately 70 μL. […] They were then assigned randomly to two cohorts by a technician that was blinded to the appearance or other characteristics of the animals. One cohort was treated for 2 weeks with 2 mg/mL of 3TC in drinking water, and the other (control) cohort with same water without drug, administered in the same manner. At the end of the treatment period all animals were sacrificed and harvested for tissues as described above. All the animals in both cohorts were all included in all subsequent analyses. The experiment was performed on separate occasions with male and female animals.
Reverse transcription qPCR (RT-qPCR) of RNA was performed using the SYBR Green system (Applied Biosystems). Polyadenylated RNA was used in all experiments assessing transcription of L1 elements, and total RNA was used for all other genes. Total RNA was harvested using the Trizol reagent (Invitrogen). Poly(A) RNA was isolated from total RNA using the NEBNext Poly(A) mRNA Magnetic Isolation Module (New England Biolabs). 1 μg of total RNA, or 10 ng of poly(A) RNA, were reverse-transcribed into cDNA in 50 μL reactions using the TaqMan kit (Applied Biosystems). To assess strand-specific transcription, the random primers in the RT reaction were substituted with a strand-specific primer to the target RNA. 1 μL of each RT reaction was used in subsequent qPCR reactions. […] The arithmetic mean of Gapdh and two additional controls (Hsp90 and GusB) was used for normalization of RT-qPCR experiments with murine tissues, with the exception of liver that was normalized to Hsp90 and GusB. For measuring L1 transcription, poly(A) RNA samples were exhaustively digested with RNase-free DNase (Qiagen) prior to the synthesis of cDNA6. Effectiveness of the DNase digestion was assessed using controls that omitted the RT enzyme.

A short description of series [3]: 3TC concentration in mouse plasma. The series is classed as in vivo. The note with it: both sexes, C57BL/6J, oral, mice, 2 mg/mL in drinking water cohort, tail bleed at 20 months of age. As for the experimental part:
(§1) C57BL/6J mice of both sexes were obtained from the NIA Aged Rodent Colonies^61 at 5 and 18 months of age. The 5-month old animals were sacrificed after a short (1 week) acclimatization period, a variety of tissues were harvested, snap frozen in LN2 and stored at −80° C. The 18-month old animals were housed until they reached a desired age. Mice were housed in a specific pathogen-free AAALAC-certified barrier facility. Cages, bedding (Sani-chip hardwood bedding) and food (Purina Lab Chow 5010) were sterilized by autoclaving. Food and water (also sterilized) were provided ad libitum. A light-dark cycle of 12 hours was used (7 AM On, 7 PM Off). Temperature was maintained at 70° F., and humidity at 50%. All animals were observed daily and weighed once per week. In a pilot experiment, three cohorts of 10 animals each were treated with 3TC dissolved in drinking water (1.5 mg/ml, 2.0 mg/ml, 2.5 mg/ml) continuously from 18 months until sacrifice at 24 months. The fourth (control) cohort was provided with the same water without drug. […] Once during the experiment (at 20 months of age) the animals were subjected to a single tail bleed of approximately 70 μL. The collected plasma was shipped to the University of North Carolina CFAR Clinical Pharmacology and Analytical Chemistry Core for analysis of 3TC. For the 2 mg/mL cohort the concentration of 3TC in plasma averaged 7.2 μM. […]

The format of series [4] is in vivo. Conditions: mice, 1.5, 2.0, 2.5 mg/ml in drinking water from 18 to 24 months. As for the experimental part:
as §1

The conditions of series [5]: 300 mg per day; cited from earlier work.

“And” between values parts separate entries of the source, which are not always exact repeats. Equal values may be shown once.

On to `Nc1nc(=O)n([C@@H]2CS[C@H](CO)O2)cc1F` [Emtricitabine], for which the huCSF/Plasma in series [1] was 0.35.

For `Nc1ccn([C@@H]2CS[C@H](CO)O2)c(=O)n1` [Lamivudine], in series [2] (05 mo mice + 3TC), the “IFNA Individual Foldchanges” value was 1.821 and 2.748 and 2.909 and 0.645 and 0.465 and 0.346; the “IL6 Individual Foldchanges” value is 1.455 and 0.924 and 5.604 and 1.622 and 1.920 and 0.751; the “IRF7 Individual Foldchanges” value was 1.040 and 1.153 and 1.132 and 0.684 and 0.565 and 0.960; the “L1 Individual Foldchanges” value is 1.458 and 1.464 and 0.484 and 1.829 and 2.537 and 0.747. Also, in series [2] (05 mo mice + 3TC), the “MMP3 Individual Foldchanges” value is 1.587 and 0.601 and 1.946 and 0.711 and 0.635 and 0.476; the “OAS1 Individual Foldchanges” value is 2.867 and 1.521 and 6.031 and 1.317 and 0.037 and 1.603; the “PAI Individual Foldchanges” value was 2.291 and 0.842 and 2.212 and 1.683 and 0.180 and 0.380; the “p16 Individual Foldchanges” value was 2.881 and 0.457 and 0.957 and 0.270 and 0.104 and 0.541. In series [2] (05 mo mice + 3TC), the “IFNA Age-group Foldchanges” value was 1.489, the “IL6 Age-group Foldchanges” value was determined as 2.046, the “IRF7 Age-group Foldchanges” value amounted to 0.922 and the “L1 Age-group Foldchanges” value came out at 1.420. Further, in series [2] (05 mo mice + 3TC), the “MMP3 Age-group Foldchanges” value is on record as 0.993, the “OAS1 Age-group Foldchanges” value was determined as 2.229, the “PAI Age-group Foldchanges” value stood at 1.265 and the “p16 Age-group Foldchanges” value was found to be 0.868. In addition, in series [2] (26 mo mice + 3TC), the “IFNA Individual Foldchanges” value is 10.115 and 2.941 and 4.156 and 1.283 and 1.601 and 8.335 and 19.836 and 3.982 and 6.531 and 8.332 and 5.514 and 6.321; the “IL6 Individual Foldchanges” value is 1.116 and 1.553 and 2.194 and 0.686 and 1.395 and 1.291 and 8.067 and 0.654 and 2.119 and 3.177 and 1.148 and 4.866; the “IRF7 Individual Foldchanges” value is 0.540 and 0.506 and 0.498 and 0.424 and 0.954 and 3.302 and 0.993 and 1.155 and 0.950 and 1.866; the “L1 Individual Foldchanges” value is 2.819 and 2.160 and 2.053 and 1.491 and 6.524 and 2.863 and 7.191 and 5.433 and 3.817 and 4.409 and 5.864 and 2.745. Further, in series [2] (26 mo mice + 3TC), the “MMP3 Individual Foldchanges” value was 1.044 and 0.972 and 1.618 and 1.650 and 1.033 and 1.166 and 4.484 and 0.374 and 1.543 and 3.656 and 1.964 and 1.637; the “OAS1 Individual Foldchanges” value is 1.658 and 0.643 and 0.055 and 0.482 and 1.094 and 0.695 and 7.091 and 3.841 and 1.945 and 0.636 and 0.565 and 1.469; the “PAI Individual Foldchanges” value is 1.034 and 1.056 and 2.696 and 0.493 and 1.562 and 1.675 and 2.347 and 0.529 and 0.747 and 8.508 and 6.112 and 7.313; the “p16 Individual Foldchanges” value was 2.290 and 3.653 and 1.731 and 1.168 and 0.844 and 1.243 and 3.690 and 2.458 and 2.135 and 4.053 and 1.969 and 1.326. Moreover, in series [2] (26 mo mice + 3TC), the “IFNA Age-group Foldchanges” value was 6.579, the “IL6 Age-group Foldchanges” value is 2.355, the “IRF7 Age-group Foldchanges” value is 1.076 and the “L1 Age-group Foldchanges” value came to 3.947. Besides, in series [2] (26 mo mice + 3TC), the “MMP3 Age-group Foldchanges” value is listed as 1.762, the “OAS1 Age-group Foldchanges” value worked out at 1.681, the “PAI Age-group Foldchanges” value amounted to 2.839 and the “p16 Age-group Foldchanges” value is recorded as 2.213. In addition, in series [3], the concentration at 2 months of continuous dosing (sampled at 20 months of age) was found to be 7.2 µM. The “behavior, weight, or survival versus control cohort” value in series [4] is given as “No significant differences in behavior, weight, or survival”. In series [5], the “3TC in plasma at human HIV therapeutic dose” value was 5 to 8 µM.

The values are drawn from patent US12246022B2, “Compositions and methods for treating, preventing or reversing age associated inflammation and disorders” (BROWN UNIVERSITY, priority 2019, dated 2025).
